Measured values as given in patent US20150284347A1, “NEW BENZENE SULFONAMIDE THIAZOLE COMPOUNDS” (INSERM (INSTITUT NATIONAL DE LA SANTÉ ET DE LA RECHERCHE …, priority 2012, published 2015).

System: melanoma cells resistant to dabrafenib
Assay: Trypan blue cell viability, melanoma cells resistant to dabrafenib
Type: cell-based, human
Conditions: patient melanoma cells resistant to dabrafenib, FIG. 5
Procedure: The measure of cell viability was performed in the same way as for FIG. 1. Results are expressed as percentage of cells alive relatively to the number of living cells in the presence of DMSO, which is a negative control
Cells were seeded in 6-well plates (60000 cells/well), depleted and incubated with compounds for the times indicated. Then cells were detached in the presence of 2000 of HyQTase (Thermo) and 2 ml of RPMI 1640 Glutamax (Gibco) was added to the cell solution. 100 of this solution was stained for 1 minute with 100 of 0.4% trypan blue before counting with a Malassez chamber.
Melanoma cells resistant to dabrafenib wee prepared from patients treated and presented a resistance to dabrafenib. dabrafenib, [HA15], [SR47] and [SR50] were tested on these resistant cells, in order to determine their activity on cell viability of resistant melanoma cells, as illustrated in FIG. 5.

CC(=O)Nc1nc(-c2cccc(NS(=O)(=O)c3cccc4c(N(C)C)cccc34)c2)cs1 [HA15, N-(4-(3-(5-(dimethylamino)naphthalene-1-sulfonamido)phenyl)thiazol-2-yl)acetamide]
cell viability of resistant melanoma cells: inhibit cell viability of resistant melanoma cells
